Our source for the GI50 and TGI values is PubChem BioAssay (NCI).

Several values for one entry are separate records, joined by “and”; a condition that tells them apart may be missing. Equal values may be shown once.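 Exposure lasted 48 hours, with cells grown in 96-well plates and compounds tested at five concentrations. The concentration for 50% growth inhibition is given as GI50. TGI is the concentration that stops growth completely.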 Some results are limits rather than exact numbers.

Test systems include BT-549 breast; HCT-116 colon; HS 578T breast; K-562 leukemia; KM12 colon; LOX IMVI melanoma; MOLT-4 leukemia; NCI-H522 lung; OVCAR-4 ovarian; SF-295 CNS.
Holding throughout (assay): NCI tumour cell line growth inhibition, 48 h

`Cc1ccc2c(c1)n([O-])c(C(F)(F)F)c(C(=O)c1ccco1)[n+]2=O`: the GI50 is 627 nM with BT-549 breast; 994 nM in the assay on HCT-116 colon; 1200 nM with HS 578T breast; 1100 nM in the assay with K-562 leukemia; 667 nM in the assay on KM12 colon; 176 nM in the assay with LOX IMVI melanoma. Also, the GI50 is 14600 nM in the assay on MOLT-4 leukemia, 1420 nM in the assay with NCI-H522 lung, 627 nM with OVCAR-4 ovarian and 457 nM with SF-295 CNS. For the same compound, the TGI with BT-549 breast stood at 4210 nM; with HCT-116 colon, 12700 nM; in the assay on HS 578T breast it was 7730 nM; in the assay with K-562 leukemia it was 34500 nM; with KM12 colon, 2490 nM; with LOX IMVI melanoma, 930 nM. The TGI with MOLT-4 leukemia is 50000 nM; in the assay on NCI-H522 lung, 12500 nM; in the assay with OVCAR-4 ovarian it was 1890 nM; in the assay with SF-295 CNS, 1970 nM.

On to `COc1cc(-c2cc(-c3ccc(Nc4nc(Nc5ccc(Cl)cc5)nc(Nc5ccc(Cl)cc5)n4)cc3)no2)cc(OC)c1OC`, for which the GI50 in the assay with BT-549 breast was 13900 nM; in the assay with HCT-116 colon it was 4310 nM; in the assay on HS 578T breast it was 1710 nM; in the assay on K-562 leukemia, 1980 nM; with KM12 colon, 14200 nM; in the assay with LOX IMVI melanoma, 11400 nM. The GI50 with MOLT-4 leukemia is 1230 nM; with NCI-H522 lung it was 2890 nM; with OVCAR-4 ovarian it was 57100 nM; in the assay with SF-295 CNS, 35100 nM. In addition, the TGI is above 100000 nM with BT-549 breast; 42900 nM in the assay on HCT-116 colon; above 100000 nM in the assay on HS 578T breast; 19400 nM in the assay with K-562 leukemia; above 100000 nM with KM12 colon; above 100000 nM with LOX IMVI melanoma. The TGI in the assay with MOLT-4 leukemia was 23700 nM; with NCI-H522 lung it was above 100000 nM; in the assay with OVCAR-4 ovarian, above 100000 nM; in the assay on SF-295 CNS, above 100000 nM.

With `O=C(O)[C@@H](Cc1ccccc1)NS(=O)(=O)c1ccc(-c2ccccc2)cc1`, the GI50 with BT-549 breast, in the assay with HCT-116 colon, in the assay on HS 578T breast, in the assay on K-562 leukemia, in the assay on KM12 colon and in the assay on LOX IMVI melanoma was above 100000 nM in each case. For the same compound, the GI50 in the assay with MOLT-4 leukemia, in the assay with NCI-H522 lung, in the assay with OVCAR-4 ovarian and in the assay with SF-295 CNS was above 100000 nM throughout. Further, the TGI in the assay on BT-549 breast, with HCT-116 colon, in the assay on HS 578T breast, in the assay on K-562 leukemia, in the assay on KM12 colon and in the assay on LOX IMVI melanoma was above 100000 nM each time. Besides, the TGI in the assay with MOLT-4 leukemia, in the assay on NCI-H522 lung, with OVCAR-4 ovarian and in the assay on SF-295 CNS was above 100000 nM in each case.

For `CN1c2cccc[c]2[Sn]([CH3])([CH3])[c]2ccccc21`, the GI50 is below 10 nM in the assay on BT-549 breast; below 10.7 nM in the assay on HCT-116 colon; 16.6 nM in the assay with HS 578T breast; below 10 nM in the assay with K-562 leukemia; below 10 nM in the assay on KM12 colon; 10.7 nM in the assay with LOX IMVI melanoma. In addition, the GI50 was 10.1 nM with MOLT-4 leukemia, 10.2 nM in the assay with NCI-H522 lung, below 12.1 nM with OVCAR-4 ovarian and below 16.5 nM in the assay on SF-295 CNS. Moreover, the TGI is 165 nM with BT-549 breast; below 16.1 nM in the assay on HCT-116 colon; 683 nM in the assay with HS 578T breast; 2130 nM with K-562 leukemia; below 16.9 nM in the assay with KM12 colon; 30.4 nM with LOX IMVI melanoma. The TGI in the assay with MOLT-4 leukemia was 936 nM; with NCI-H522 lung, 26.2 nM; in the assay with OVCAR-4 ovarian it was 232 nM; in the assay with SF-295 CNS, below 34 nM.

On to `COc1cc(N2CCN(C(C)C)CC2)ccc1Nc1nc(Nc2ccc(F)cc2C(N)=O)c2cc[nH]c2n1`, for which the GI50 is 3280 nM with BT-549 breast; 119 nM in the assay on HCT-116 colon; 2670 nM with HS 578T breast; 3310 nM in the assay with K-562 leukemia; 3140 nM in the assay on KM12 colon; 124 nM in the assay on LOX IMVI melanoma. The GI50 was 5240 nM with MOLT-4 leukemia, 2800 nM in the assay on NCI-H522 lung, 2980 nM in the assay on OVCAR-4 ovarian and 3990 nM with SF-295 CNS. Further, the TGI was determined as 6930 nM in the assay on BT-549 breast; 3600 nM in the assay with HCT-116 colon; 9800 nM in the assay with HS 578T breast; 15200 nM in the assay with K-562 leukemia; 7970 nM with KM12 colon; 4630 nM with LOX IMVI melanoma. The TGI with MOLT-4 leukemia is 15400 nM; with NCI-H522 lung, 6420 nM; with OVCAR-4 ovarian, 7040 nM; in the assay on SF-295 CNS, 10300 nM.

On to `Cn1cc(-c2[nH]c3cc(NC(=O)[C@H](N)C4CCCCC4)cc4c3c2C=NNC4=O)cn1`, for which the GI50 is 215 nM and 375 nM in the assay with BT-549 breast; 399 nM and 561 nM with HCT-116 colon; 185 nM and 247 nM with HS 578T breast; 193 nM and 205 nM in the assay on K-562 leukemia; 1660 nM and 950 nM with KM12 colon; 305 nM and 268 nM with LOX IMVI melanoma. Further, the GI50 was 287 nM and 334 nM in the assay on MOLT-4 leukemia; 352 nM and 222 nM with NCI-H522 lung; 184 nM and 217 nM in the assay on OVCAR-4 ovarian; 273 nM and 318 nM in the assay with SF-295 CNS. Moreover, the TGI in the assay on BT-549 breast was 1410 nM and 5850 nM; in the assay with HCT-116 colon, 10900 nM and > 10000 nM; in the assay on HS 578T breast it was 2590 nM and 1810 nM; in the assay with K-562 leukemia, 1780 nM and > 10000 nM; in the assay on KM12 colon it was 12700 nM and > 10000 nM; in the assay on LOX IMVI melanoma, 3520 nM and 1660 nM. The TGI with MOLT-4 leukemia is 797 nM and > 6550 nM; in the assay with NCI-H522 lung, 1960 nM and 2770 nM; in the assay with OVCAR-4 ovarian it was 10500 nM and > 10000 nM.

In the case of `C=C1C(=O)O[C@H]2[C@H]1CC/C(COC(=O)NCCc1ccc(Br)cc1)=C\CC[C@@]1(C)O[C@@H]21`, the GI50 is 1100 nM in the assay on BT-549 breast; 477 nM in the assay with HCT-116 colon; 2410 nM in the assay on HS 578T breast; 535 nM with K-562 leukemia; 1950 nM in the assay on KM12 colon; 1180 nM with LOX IMVI melanoma. Besides, the GI50 was 1690 nM in the assay on MOLT-4 leukemia, 1160 nM in the assay with NCI-H522 lung, 1560 nM in the assay with OVCAR-4 ovarian and 3810 nM with SF-295 CNS. Also, the TGI was found to be 2600 nM in the assay with BT-549 breast; 1810 nM in the assay on HCT-116 colon; 7150 nM in the assay on HS 578T breast; 5610 nM in the assay with K-562 leukemia; 4460 nM in the assay with KM12 colon; 2580 nM in the assay with LOX IMVI melanoma. For the same compound, the TGI in the assay on MOLT-4 leukemia is 4800 nM; in the assay on NCI-H522 lung it was 2730 nM; in the assay on OVCAR-4 ovarian it was 3290 nM; in the assay on SF-295 CNS it was 15500 nM.

In the case of `Clc1ccc(Nc2nnc(COc3ccccc3)c3ccccc23)cc1`, the GI50 in the assay on BT-549 breast was 2050 nM; in the assay with HCT-116 colon it was 1070 nM; with HS 578T breast, 2580 nM; with K-562 leukemia, 1850 nM; in the assay with KM12 colon, 2650 nM; with LOX IMVI melanoma it was 1290 nM. Also, the GI50 in the assay with MOLT-4 leukemia was 1060 nM; in the assay with NCI-H522 lung, 354 nM; in the assay with OVCAR-4 ovarian, 2090 nM; with SF-295 CNS, 1650 nM. Also, the TGI in the assay with BT-549 breast is 6650 nM; in the assay with HCT-116 colon it was 4830 nM; in the assay with HS 578T breast it was 10500 nM; in the assay on K-562 leukemia, 11900 nM; with KM12 colon, 7720 nM; with LOX IMVI melanoma, 4850 nM. In addition, the TGI with MOLT-4 leukemia amounted to 6700 nM; in the assay with NCI-H522 lung, 4040 nM; in the assay on OVCAR-4 ovarian, 25000 nM; in the assay on SF-295 CNS, 6700 nM.

Regarding `CC1(/C=C/c2ccc(-c3ccccc3)cc2)CCn2cnc3ncnc(c32)N1O` (centres undefined), the GI50 is 495 nM in the assay with BT-549 breast; 358 nM with HCT-116 colon; 3370 nM in the assay with HS 578T breast; 359 nM with K-562 leukemia; 415 nM in the assay with KM12 colon; 302 nM with LOX IMVI melanoma. Besides, the GI50 was 347 nM in the assay on MOLT-4 leukemia, 521 nM with NCI-H522 lung, 298 nM with OVCAR-4 ovarian and 419 nM in the assay on SF-295 CNS. Further, the TGI was 16900 nM with BT-549 breast; 18600 nM in the assay with HCT-116 colon; 30900 nM in the assay on HS 578T breast; above 66700 nM with K-562 leukemia; 23100 nM in the assay on KM12 colon; 21600 nM with LOX IMVI melanoma. Besides, the TGI with MOLT-4 leukemia is 27900 nM; in the assay on NCI-H522 lung, 34000 nM; in the assay on OVCAR-4 ovarian, above 50200 nM; with SF-295 CNS it was 17100 nM.

On to `Nc1cc2c3ccccc3ccc2c2ccccc12`, for which the GI50 with BT-549 breast was above 77100 nM; in the assay on HCT-116 colon, 13400 nM; with HS 578T breast, above 100000 nM; in the assay with K-562 leukemia, 19300 nM; in the assay with KM12 colon it was above 100000 nM; with LOX IMVI melanoma, 9130 nM. For the same compound, the GI50 was above 100000 nM with MOLT-4 leukemia, above 100000 nM in the assay with NCI-H522 lung, above 22500 nM in the assay on OVCAR-4 ovarian and above 100000 nM with SF-295 CNS. The TGI in the assay on BT-549 breast, in the assay on HCT-116 colon, with HS 578T breast, with K-562 leukemia, with KM12 colon and with LOX IMVI melanoma was above 100000 nM each time. Moreover, the TGI in the assay with MOLT-4 leukemia, with NCI-H522 lung, in the assay with OVCAR-4 ovarian and in the assay with SF-295 CNS was above 100000 nM throughout.
